Where two headings read alike, the source gives them in different places.
Key:
[1] = system: old dogs presenting behavioral disorders associated with CDS; test: Study of SAMe in old dogs presenting behavioral disorders associated with CDS (Example 1); assay type: in vivo; conditions: for dogs showing an improvement in activity level (owners) / mean activity level of the animals as observed by a veterinarian: at least 2.5 mg SAMe per kg per day
Description: A study was conducted to show the efficacy of S-adenosyl-L-methionine in old dogs presenting behavioral disorders associated with CDS.
S-adenosyl-L-methionine was administered in the form of tablets containing 10, 50 or 100 mg of SAMe.
15 dogs more than 7 years old were selected with no restrictions on breed, sex or weight. All the dogs presented well-established cognitive disorders associated with CDS (cleanliness problems, disorders of activity-sleep cycle, decrease in activity) which had been observed by their owners and by veterinarians.
Dogs presenting diseases requiring medical treatment were excluded from the study, as were dogs which had been treated with psychotropic drugs in the month preceding the study. Also, to avoid biases in the observations, heart, kidney and liver treatments and psychoactive drugs were not permitted during the study.
During the study the dogs received at least the equivalent of 2.5 mg of SAMe per kg of body weight per day in a single daily administration over a period of 4 months.
The dogs were examined by a veterinarian at the start of the experiment and then every month. The blood parameters were analyzed at each veterinary examination.
Experiment number 1: Measurement of the activity level of the dogs.
Experiment number 2: Measurement of the effect on the sleeping time of the dogs.
Experiment number 3: Evaluation of the effect on the anxiety of the dogs.

[2] = system: dogs presenting signs of fear; test: Effect of the nutritional supplement on behavior and physical signs associated with fear in dogs (Example 2); assay type: in vivo; conditions: 7.5 mg SAMe/kg/day oral for one month, then 2.5 mg/kg/day for two months; sum of 6 parameter scores (FIG. 4)
Description: Another study was conducted to show the effect of administering to dogs a nutritional supplement based on S-adenosyl-L-methionine on the behavior and physical signs associated with fear.
The nutritional supplement used in this test consisted of tablets containing 10, 50 or 100 mg of SAMe. It was administered to the animals at a loading dose of 7.5 mg of SAMe per kg of body weight per day in a single daily oral administration for one month, and then at a maintenance dose of 2.5 mg of SAMe per kg of body weight per day in a single daily oral administration for the next two months.
15 dogs aged between 6 months and 15 years are selected with no restrictions on breed, sex or weight. In the two months preceding inclusion in the study, all the dogs presented signs of fear associated either with inhibited behavior or, conversely, with exaggerated responses. This type of problem had to have been identified in the dog for more than two months. The “overall fear score” (sum of the individual scores for the various parameters monitored) recorded at the start of the experiment had to be greater than 7, the parameters observed being as follows: • Pupil dilation. Score: 0=normal, 1=increased, 2=complete. • Trembling. Score: 0=none, 1=slight, 2=pronounced. • Exploration. […]

[3] = system: old dogs with behavioral disorders; test: Randomized double-blind placebo-controlled study on reduced mental capacity of old dogs (Example 4); assay type: in vivo
Description: These behavioral disorders manifested themselves as follows: disorientation, decrease in activity, decrease in social interactions, changes in activity-sleep cycle, lack of cleanliness, anxiety.
The dogs were randomly assigned to one of two treatment groups: SAMe or placebo. […]
The dogs were examined by an investigator at the start of the experiment and then at 30 days and 60 days.
The examinations looked at the various behavioral disorders of the animals, which were evaluated on a scale of 0 to 3 according to their intensity, and all the scores were added together to give a “standardized geriatric behavior score” reflecting the severity of the problems observed.

[4] = system: old cats with cognitive disorders
Description: A study was conducted to show the effects of S-adenosyl-L-methionine on age-related behavioral disorders in cats.
SAMe was administered in the form of tablets containing 90 mg of an S-adenosyl-L-methionine salt (the 1,4-butanedisulfonate).
The tablets were given once a day for a period of 3 consecutive months to comply with the following doses: • Mean dose: 18 (±3.4) mg/kg/d; minimum dose: 12.9 mg/kg/d; maximum dose: 22.5 mg/kg/d.
The blood parameters were analyzed by the veterinarian every month. The owners were also asked to give their opinion on the changes observed in the behavior of their pets.

[5] = after two months of treatment, tosylate salt, 18.5 mg/kg/d
[6] = response to the treatment at D60, n = 17, tosylate salt, 18.5 mg/kg/d
[7] = 3 months, 1,4-butanedisulfonate salt, mean 18 mg/kg/d (FIG. 6)

Compound: C[S@@+](CC[C@H](N)C(=O)O)C[C@H]1O[C@@H](n2cnc3c(N)ncnc32)[C@H](O)[C@@H]1O [SAMe, 5′-[[3S-amino-3-carboxypropyl]methyl-(S)-sulfonio]-5′-deoxyadenosine]
- dogs showing an improvement in activity level (owners) ([1]; after one month): more than 70%
- mean activity level of the animals as observed by a veterinarian ([1]; after one month, tablets, single daily administration, score -1 reduced, 0 unchanged, 1 increased (FIG. 1)): increased significantly
- mean activity level of the animals as observed by a veterinarian ([1]; after the first month, up to 4 months): remained above the animals' normal activity
- sleeping time of the animals ([1]; daily for 4 months, variations decreased considerably after two months (FIG. 2)): tended to normalize
- efficacy as considered by the owners ([1]; end of the study (4 months)): very good
- dogs showing an improvement in activity level (owners) ([1]; first two weeks of the treatment): 38%
- anxiety of the animals ([1]; throughout the 4-month period, score 0 none to 3 permanent (FIG. 3)): decreased regularly
- overall fear score [2]: decreases very substantially
- average improvement in terms of activity [3, 5]: 57.1%
- average improvement in terms of learning behavior, more particularly cleanliness [3, 5]: 57.1%
- average improvement in terms of reactivity [3, 5]: 59.5%
- owners' impression of their animals under treatment ([3]; end of the study, majority of the owners): more active and reactive
- % of dogs, Good response [3, 6]: 41.2%
- % of dogs, No response [3, 6]: 35.3%
- % of dogs, Poor response [3, 6]: 23.5%
- No. of dogs, Good response [3, 6]: 7
- No. of dogs, No response [3, 6]: 6
- No. of dogs, Poor response [3, 6]: 4
- reduction of the standardized geriatric behavior score ([3]; tosylate salt tablets once a day, average 18.5 mg/kg/d, versus placebo over the study period (FIG. 11)): more significant with SAMe than with placebo
- cases with improved elimination behavior [4, 7]: 40%
- cats with improved elimination behavior (number) [4, 7]: 2 out of 5
- cats exhibiting ambulation or vocalization periods ([4]; 15 days after the start of the experiment (70% at the start)): 30%
- play activity of the cats ([4]; after one month (FIG. 8)): promising net effect
- exploratory behavior of the cats ([4]; as from 15 days of treatment (FIG. 7)): perceptible activating effect
- cats exhibiting ambulation or vocalization periods ([4]; as from the second month (70% at the start)): no cat
- cats with a positive result on play activity ([4]; at 2 months (FIG. 8)): 7 out of 10
- interactions/recognition (owners, other animals) ([4]; cats which initially presented an interaction deficit (FIG. 9)): responded rather well
- interactions/recognition (owners, other animals) ([4]; cats which manifested hyperattachment (FIG. 9)): more variable
- periods of waking with a start or nightmares ([4]; during the 3-month study, 1,4-butanedisulfonate salt, mean 18 mg/kg/d): No cat
- efficacy as considered by the owners ([4]; end of the study (3 months)): very good
- cats with a return to a normal day-night cycle ([4]; in one month, 1,4-butanedisulfonate salt tablets, mean dose 18 mg/kg/d once a day (FIG. 5)): 7 out of 10
- cats in which aggressiveness or irritability was eliminated (number) ([4]; in three months (FIG. 10)): 4 out of 5
- manifestations of aggressiveness or irritability eliminated ([4]; in three months, encountered in 50% of the cats (FIG. 10)): 80%
- side effects ([4]; in vivo): without causing side effects

From patent US20080199520A1, “S-Adenosyl-L-Methionine for Regulating Behavioral Disorders in Pets” (VIRBAC, priority 2005, published 2008)
